22 compounds from PMC9782500 (International Journal of Molecular Sciences, 2022) can be followed below.

The target in this experiment is T1, RXRα (Homo sapiens, UniProt P19793).
T1 sequence (P19793 227-458 limits assumed): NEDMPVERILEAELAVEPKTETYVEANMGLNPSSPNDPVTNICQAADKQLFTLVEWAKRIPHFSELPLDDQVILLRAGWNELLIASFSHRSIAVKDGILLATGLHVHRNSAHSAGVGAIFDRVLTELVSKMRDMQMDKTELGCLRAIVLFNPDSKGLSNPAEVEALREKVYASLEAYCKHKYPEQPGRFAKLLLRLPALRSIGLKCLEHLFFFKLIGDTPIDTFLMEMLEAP
Description: RXRα activation EC50 (Luc and GFP UAS/Gal4 assays).
Description: UAS/Gal4 assay. Bone marrow cells from UAS-GFP mice [79] were transduced with retroviruses MSCV-Gal4 (DNA binding domain, DBD)—RXRα (ligand binding domain, LBD)—IRES—mCherry. […] Cells were treated, and after 48 h, GFP was measured by flow cytometry.
Luciferase detection. HEK293T cells were transfected using Lipofectamine 2000 (Invitrogen) [80]. Six hours after transfection, the cells were collected and plated into a 48-well plate in 1% BSA media in biological triplicates and treated with compounds. After 40 h incubation, the cells were harvested and assayed for luciferase (Luc Assay System with Reporter Lysis Buffer, Promega) in a Beckman Coulter LD400 plate reader.
The term EC50 denotes the concentration needed to bring the measured effect to its halfway point. In turn, `Cc1cc2c(cc1N(C)c1ccc(C(=O)O)cc1)C(C)(C)CCC2(C)C` [Compound 23, reference compound] returned an EC50 of 8.6 nM. That is a single-digit nanomolar value.

In the case of `Cc1cc2c(cc1N(C)c1ncc(C(=O)O)cn1)C(C)(C)CCC2(C)C` [Compound 24, reference compound], the midpoint of the response, the EC50, lay at 6.2 nM.

On to `CN(c1ccc2c(c1)C(C)(C)CCC2(C)C)c1ncc(C(=O)O)cn1` [Compound 25, reference compound], for which the midpoint of the response, the EC50, lay at 17.8 nM. This EC50 lies about 2.9-fold higher than the previous one.

Regarding `C=C(c1ccc(C(=O)O)cc1)c1cc2c(cc1C)C(C)(C)OCC2(C)C` [Compound 26], the midpoint of the response, the EC50, lay at 51 nM.

`Cc1ccc(/C=C/C(=O)O)cc1-c1cc2c(cc1C)C(C)(C)OCC2(C)C` [Compound 27] came in with an EC50 of 65.3 nM.

The compound `Cc1cc2c(cc1-c1cc(/C=C/C(=O)O)ccc1C(F)(F)F)C(C)(C)COC2(C)C` [Compound 28] had an EC50 of 59.2 nM.

In turn, `Cc1cc2c(cc1-c1cc(/C=C/C(=O)O)ccc1O)C(C)(C)COC2(C)C` [Compound 29] showed an EC50 of 3.9 nM.

In the case of `Cc1cc2c(cc1-c1coc3cc(C(=O)O)ccc13)C(C)(C)COC2(C)C` [Compound 30], the EC50 was > 1000 nM.

Regarding `Cc1cc2c(cc1N(C)c1ccc(C(=O)O)cn1)C(C)(C)CCC2(C)C` [Compound 31], the EC50 worked out at 5.4 nM.

Compound `C=CCN(c1ccc(C(=O)O)cn1)c1cc2c(cc1C)C(C)(C)CCC2(C)C` [Compound 32] gave an EC50 of 1.8 nM.

In the case of `C=CCN(c1ncc(C(=O)O)cn1)c1cc2c(cc1C)C(C)(C)CCC2(C)C` [Compound 33], the EC50 is 5.3 nM.

Compound `C=CCN(c1ccc(C(=O)O)cc1)c1cc2c(cc1C)C(C)(C)CCC2(C)C` [Compound 34] displayed an EC50 of 11.5 nM. This EC50 is about 2.2-fold higher than that of the compound before.

`C=CCN(c1ccc2c(c1)C(C)(C)CCC2(C)C)c1ncc(C(=O)O)cn1` [Compound 35] came in with an EC50 of 0.54 nM.

`Cc1cc2c(cc1N(C)c1ccc(C(=O)O)cn1)C(C)(C)COC2(C)C` [Compound 36]: the EC50 turned out to be 75 nM.

`Cc1cc2c(cc1N(C)c1ncc(C(=O)O)cn1)C(C)(C)COC2(C)C` [Compound 37] had an EC50 of 405 nM.

The compound `CCN(c1ccc(C(=O)O)cn1)c1cc2c(cc1C)C(C)(C)OCC2(C)C` [Compound 38] registered a concentration for a half-maximal effect (EC50) of 23.7 nM. Compared with the last compound, the EC50 is about 17-fold lower.

On to `CCN(c1ncc(C(=O)O)cn1)c1cc2c(cc1C)C(C)(C)OCC2(C)C` [Compound 39], for which the EC50 was determined as 152 nM. This EC50 is about 6.4-fold higher than that of the compound before.

Consider `C=CCN(c1ccc(C(=O)O)cn1)c1cc2c(cc1C)C(C)(C)OCC2(C)C` [Compound 40], for which the EC50 worked out at 10.7 nM.

In the case of `C=CCN(c1ncc(C(=O)O)cn1)c1cc2c(cc1C)C(C)(C)OCC2(C)C` [Compound 41], the EC50 was determined as 143 nM.

Regarding `Cc1cc2c(cc1N(C)c1ccc(C(=O)O)cc1)C(C)(C)COC2(C)C` [Compound 42], a half-maximal effect (EC50) was put at 87.7 nM. Compared with the last compound, the EC50 is about 1.6-fold lower.

In turn, `CCN(c1ccc(C(=O)O)cc1)c1cc2c(cc1C)C(C)(C)OCC2(C)C` [Compound 43] came in with an EC50 of 23.1 nM.

`C=CCN(c1ccc(C(=O)O)cc1)c1cc2c(cc1C)C(C)(C)OCC2(C)C` [Compound 44] gave an EC50 of 116 nM.
